From patent US6737383B1, “Herbicidal oxadiazolidines” (priority 1999, dated 2004)

Tests used:
giant foxtail = assay: Test B pre/postemergence giant foxtail; format: in vivo, Setaria faberii; conditions: for Giant foxtail plant response rating: scale of 0 to 10 where 0 is no effect and 10 is complete control
Procedure, shortened: (§1)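 Response is a visual 0-to-10 score relative to untreated plants, where 0 means no effect and 10 means complete control, taken twelve to sixteen days after application. Treatments went onto soil at planting and onto foliage of 1- to 4-leaf plants, using a surfactant-containing non-phytotoxic solvent.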

wild oat = assay: Test B pre/postemergence wild oat; format: in vivo, Avena fatua; conditions: for Wild oats plant response rating: scale of 0 to 10 where 0 is no effect and 10 is complete control
Procedure, shortened: as §1

bamyardgrass = assay: Test B flood test barnyardgrass; format: in vivo, Echinochloa crus-galli
Procedure, shortened: (§2)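 Flood test on plants grown to the 2-leaf stage; treated plants kept in greenhouse twelve to sixteen days, then visually rated against controls on a 0 (no effect) to 10 (complete control) scale.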

velvetleaf = assay: Test B pre/postemergence velvetleaf; format: in vivo, Abutilon theophrasti; conditions: for Velvetleaf plant response rating: scale of 0 to 10 where 0 is no effect and 10 is complete control
Procedure, shortened: as §1

duck salad = assay: Test B flood test duck salad; format: in vivo, Heteranthera limosa
Procedure, shortened: as §2

surinam grass = assay: Test B pre/postemergence surinam grass; format: in vivo, Brachiaria decumbens
Procedure, shortened: as §1

cocklebur = assay: Test B pre/postemergence cocklebur; format: in vivo, Xanthium strumarium; conditions: for Cocklebur plant response rating: scale of 0 to 10 where 0 is no effect and 10 is complete control
Procedure, shortened: as §1

bedstraw = assay: Test B pre/postemergence bedstraw; format: in vivo, Galium aparine; conditions: Preemergence, scale of 0 to 10 where 0 is no effect and 10 is complete control
Procedure, shortened: as §1

rice = assay: Test B flood test rice; format: in vivo, Oryza sativa
Procedure, shortened: as §2

sugar beet = assay: Test B pre/postemergence sugar beet; format: in vivo, Beta vulgaris; conditions: for Sugarbeets plant response rating: scale of 0 to 10 where 0 is no effect and 10 is complete control
Procedure, shortened: as §1

crabgrass = assay: Test B pre/postemergence crabgrass; format: in vivo, Digitaria sanguinalis; conditions: for Crabgrass plant response rating: scale of 0 to 10 where 0 is no effect and 10 is complete control
Procedure, shortened: as §1

pigweed = assay: Test B pre/postemergence pigweed; format: in vivo, Amaranthus retroflexus; conditions: for Redroot pigweed plant response rating: scale of 0 to 10 where 0 is no effect and 10 is complete control
Procedure, shortened: as §1

wheat = assay: Test B pre/postemergence wheat; format: in vivo, Triticum aestivum; conditions: for Wheat plant response rating: scale of 0 to 10 where 0 is no effect and 10 is complete control
Procedure, shortened: as §1

blackgrass = assay: Test B pre/postemergence blackgrass; format: in vivo, Alopecurus myosuroides
Procedure, shortened: as §1

purple nutsedge = assay: Test B pre/postemergence purple nutsedge; format: in vivo, Cyperus rotundus; conditions: for Nutsedge plant response rating: scale of 0 to 10 where 0 is no effect and 10 is complete control
Procedure, shortened: as §1

morningglory = assay: Test B pre/postemergence morningglory; format: in vivo, Ipomoea hederacea; conditions: for Morningglory plant response rating: scale of 0 to 10 where 0 is no effect and 10 is complete control
Procedure, shortened: as §1

[1] = Postemergence, Rate 125 g/ha, scale 0 to 10, 0 is no effect, 10 is complete control
[2] = Preemergence, Rate 62 g/ha, scale 0 to 10 (0 no effect, 10 complete control)
[3] = Rate 500 g/ha, Postemergence, scale 0 to 10, 0 no effect, 10 complete control
[4] = Postemergence (flood test), Rate 125 g/ha, scale 0 to 10, 0 is no effect, 10 is complete control
[5] = Rate 62 g/ha, Postemergence (flood test species), scale of 0 to 10 where 0 is no effect and 10 is complete control
[6] = Rate 62 g/ha, flood test species, Pre-emergence, visual evaluation after twelve to sixteen days
[7] = Rate 125 g/ha, Pre-emergence, flood test species, scale 0 to 10 where 0 is no effect and 10 is complete control
[8] = Rate 250 g/ha, Pre-emergence, flood-test species, scale 0 to 10, 0 is no effect, 10 is complete control
[9] = Rate 500 g/ha, listed under Postemergence (flood test species), scale 0 to 10, 0 no effect, 10 complete control
[10] = Rate 500 g/ha, Pre-emergence, flood test species, scale 0 to 10 (0 no effect, 10 complete control)
[11] = Preemergence, Rate 250 g/ha, scale of 0 to 10 where 0 is no effect and 10 is complete control
[12] = Preemergence, Rate 500 g/ha, scale of 0 to 10 where 0 is no effect and 10 is complete control
[13] = Rate 62 g/ha, Postemergence, scale of 0 to 10 where 0 is no effect and 10 is complete control
[14] = Rate 250 g/ha, Postemergence, scale of 0 to 10 where 0 is no effect and 10 is complete control

CC(C)N(C(=O)n1oc(=O)n(C2CCC2)c1=O)c1ccc(F)cc1F [Compound 351]
1: Plant response rating, Crabgrass (crabgrass; [1])
6: Plant response rating, Velvetleaf (velvetleaf; [3]) | Sugarbeets plant response rating (sugar beet; Preemergence, Rate 250 g/ha) | Plant response rating, Morningglory (morningglory; [3])
10: Plant response rating, Giant foxtail (giant foxtail; [2]) | Giant foxtail plant response rating (0 to 10 scale) (giant foxtail; Preemergence, Rate 125 g/ha) | Giant foxtail plant response rating (giant foxtail; Preemergence, Rate 250 g/ha) | Giant foxtail plant response rating (giant foxtail; Preemergence, Rate 500 g/ha) | Bedstraw plant response rating (bedstraw; Rate 500 g/ha) | Crabgrass plant response rating (0 to 10 scale) (crabgrass; Preemergence, Rate 125 g/ha) | Crabgrass plant response rating (crabgrass; Preemergence, Rate 250 g/ha) | Crabgrass plant response rating (crabgrass; Preemergence, Rate 500 g/ha) | Plant response rating, Redroot pigweed (pigweed; [2]) | Redroot pigweed plant response rating (0 to 10 scale) (pigweed; Preemergence, Rate 125 g/ha) | Redroot pigweed plant response rating (pigweed; Preemergence, Rate 250 g/ha) | Redroot pigweed plant response rating (pigweed; Preemergence, Rate 500 g/ha)
8: Sugarbeets plant response rating (sugar beet; Preemergence, Rate 500 g/ha) | Blackgrass plant response rating (blackgrass; [12])
0: Giant foxtail plant response rating (giant foxtail; Rate 62 g/ha, Postemergence) | Plant response rating, Wild oats (wild oat; [1]) | Plant response rating, Wild oats (wild oat; [2]) | Wild oats plant response rating (0 to 10 scale) (wild oat; Preemergence, Rate 125 g/ha) | Wild oats plant response rating (wild oat; Rate 62 g/ha, Postemergence) | Barnyardgrass plant response rating (bamyardgrass; [5]) | Plant response rating, Barnyardgrass (0 to 10 scale, 0 is no effect, 10 is complete control) (bamyardgrass; [6]) | Barnyardgrass plant response rating (bamyardgrass; [7]) | Barnyardgrass plant response rating (bamyardgrass; [8]) | Barnyardgrass plant response rating (bamyardgrass; [10]) | Plant response rating, Velvetleaf (velvetleaf; [1]) | Plant response rating, Velvetleaf (velvetleaf; [2]) | Velvetleaf plant response rating (velvetleaf; Rate 62 g/ha, Postemergence) | Plant response rating, Ducksalad (duck salad; [4]) | Ducksalad plant response rating (duck salad; [5]) | Plant response rating, Ducksalad (0 to 10 scale, 0 is no effect, 10 is complete control) (duck salad; [6]) | Ducksalad plant response rating (duck salad; [7]) | Ducksalad plant response rating (duck salad; [8]) | Ducksalad plant response rating (duck salad; [10]) | Plant response rating, B. signalgrass (surinam grass; [1]) | Plant response rating, B. signalgrass (surinam grass; [2]) | B. signalgrass plant response rating (0 to 10 scale, 0 is no effect, 10 is complete control) (surinam grass; Preemergence, Rate 125 g/ha) | B. signalgrass plant response rating (surinam grass; [13]) | Plant response rating, B. signalgrass (surinam grass; [14]) | Plant response rating, Cocklebur (cocklebur; [1]) | Plant response rating, Cocklebur (cocklebur; [2]) | Cocklebur plant response rating (0 to 10 scale) (cocklebur; Preemergence, Rate 125 g/ha) | Cocklebur plant response rating (cocklebur; Preemergence, Rate 250 g/ha) | Cocklebur plant response rating (cocklebur; Preemergence, Rate 500 g/ha) | Cocklebur plant response rating (cocklebur; Rate 62 g/ha, Postemergence) | Plant response rating, Rice (rice; [4]) | Rice plant response rating (rice; [5]) | Plant response rating, Rice (0 to 10 scale, 0 is no effect, 10 is complete control) (rice; [6]) | Rice plant response rating (rice; [7]) | Rice plant response rating (rice; [8]) | Plant response rating, Rice (rice; [9]) | Rice plant response rating (rice; [10]) | Plant response rating, Sugarbeets (sugar beet; [1]) | Sugarbeets plant response rating (sugar beet; Rate 62 g/ha, Postemergence) | Crabgrass plant response rating (crabgrass; Rate 62 g/ha, Postemergence) | Plant response rating, Redroot pigweed (pigweed; [1]) | Redroot pigweed plant response rating (pigweed; Rate 62 g/ha, Postemergence) | Plant response rating, Wheat (wheat; [1]) | Plant response rating, Wheat (wheat; [2]) | Wheat plant response rating (0 to 10 scale) (wheat; Preemergence, Rate 125 g/ha) | Wheat plant response rating (wheat; Preemergence, Rate 250 g/ha) | Wheat plant response rating (wheat; Rate 62 g/ha, Postemergence) | Plant response rating, Blackgrass (blackgrass; [2]) | Blackgrass plant response rating (blackgrass; [13]) | Plant response rating, Nutsedge (purple nutsedge; [1]) | Plant response rating, Nutsedge (purple nutsedge; [2]) | Nutsedge plant response rating (0 to 10 scale) (purple nutsedge; Preemergence, Rate 125 g/ha) | Nutsedge plant response rating (purple nutsedge; Preemergence, Rate 250 g/ha) | Nutsedge plant response rating (purple nutsedge; Rate 62 g/ha, Postemergence) | Plant response rating, Nutsedge (purple nutsedge; [3]) | Plant response rating, Morningglory (morningglory; [2]) | Morningglory plant response rating (0 to 10 scale) (morningglory; Preemergence, Rate 125 g/ha) | Morningglory plant response rating (morningglory; Preemergence, Rate 250 g/ha) | Morningglory plant response rating (morningglory; Preemergence, Rate 500 g/ha)
9: Plant response rating, Giant foxtail (giant foxtail; [3]) | Bedstraw plant response rating (bedstraw; Rate 250 g/ha) | Plant response rating, Crabgrass (crabgrass; [3]) | Nutsedge plant response rating (purple nutsedge; Preemergence, Rate 500 g/ha)
2: Wild oats plant response rating (wild oat; Preemergence, Rate 250 g/ha) | B. signalgrass plant response rating (surinam grass; [11]) | Plant response rating, Cocklebur (cocklebur; [3]) | Plant response rating, Sugarbeets (sugar beet; [2]) | Sugarbeets plant response rating (0 to 10 scale) (sugar beet; Preemergence, Rate 125 g/ha) | Plant response rating, Sugarbeets (sugar beet; [3]) | Wheat plant response rating (wheat; Preemergence, Rate 500 g/ha) | Plant response rating, Wheat (wheat; [3]) | Plant response rating, Blackgrass (blackgrass; [1]) | Blackgrass plant response rating (0 to 10 scale) (blackgrass; Preemergence, Rate 125 g/ha)
4: Wild oats plant response rating (wild oat; Preemergence, Rate 500 g/ha) | Velvetleaf plant response rating (velvetleaf; Preemergence, Rate 250 g/ha) | Plant response rating, Ducksalad (duck salad; [9]) | B. signalgrass plant response rating (surinam grass; [12]) | Plant response rating, B. signalgrass (surinam grass; [3]) | Plant response rating, Blackgrass (blackgrass; [14]) | Plant response rating, Blackgrass (blackgrass; [3]) | Plant response rating, Morningglory (morningglory; [1])
7: Plant response rating, Giant foxtail (giant foxtail; [1]) | Plant response rating, Crabgrass (crabgrass; [2]) | Plant response rating, Redroot pigweed (pigweed; [3])
5: Plant response rating, Wild oats (wild oat; [3]) | Plant response rating, Barnyardgrass (bamyardgrass; [9]) | Velvetleaf plant response rating (velvetleaf; Preemergence, Rate 500 g/ha)
3: Plant response rating, Barnyardgrass (bamyardgrass; [4]) | Plant response rating, Barnyardgrass (bamyardgrass; Rate 250 g/ha, Postemergence (flood test species), scale of 0 to 10 where 0 is no effect and 10 is complete control) | Velvetleaf plant response rating (0 to 10 scale) (velvetleaf; Preemergence, Rate 125 g/ha) | Blackgrass plant response rating (blackgrass; [11]) | Morningglory plant response rating (morningglory; Rate 62 g/ha, Postemergence)
